Source: patent EP1714646A1, “Pharmaceutical composition containing bakuchiol for treating osteoporosis in women” (Sinphar Pharmaceutical Co., Ltd., priority 2005, dated 2006)

Tests used:
T47D = assay: Cytotoxicity assay (CCK-8), T47D; type: cell-based, human; conditions: T47D (estrogen receptor positive), 48 hours incubation
Excerpt: (§1) Materials: DMEM (medium), RPMI (medium), L-glutamine, penicillin, streptomycin and FBS (fetal bovine serum) were obtained from Gibco (NY, USA). Culture plasticware was purchased from Coming (MA, USA). […] All other chemicals used were of reagent grade and were purchased from Sigma or E. Merck (Germany).
(§2) Cell lines and cell cultures: The human breast cancer cell lines T47D and MDA-MB231 were obtained from American Type Culture Collection (ATCC). Of both cancer cells, T47D is estrogen receptor positive, and MDA-MB231 is estrogen receptor negative. Cells were cultured at 37°C in RPMI medium containing 10% charcoal-dextran stripped fetal bovine serum for T47D cells and in DMEM medium containing 10% charcoal-dextran stripped fetal bovine serum for MDA-MB231 cells with 5% CO2. The cell proliferation was determined by counting the viable cells with trypan blue exclusion.
(§3) Cytotoxicity assay: Dispense 198 µl of cell suspension (20,000 cells for T47D per well and 10,000 cell for MDA-MB231 per well) in a 96-well plate and pre-incubate the plate for 24 hours in an incubator at 37°C with humidified 5% CO2. […] After plate was incubated for 48 hours in the incubator, media were aspirated of and new media (100 µl) were added and incubated for more 1 hour. […] Measure the absorbance at 450 nm using a ELISA reader. […]

MDA-MB231 = assay: Cytotoxicity assay (CCK-8), MDA-MB231; type: cell-based, human; conditions: MDA-MB231 (estrogen receptor negative), 48 hours incubation
Excerpt: as §1, §2, §3

[1] = system: osteoporosis caused by estrogen deficiency; assay: Ovariectomized rat osteoporosis model: bone histomorphometry and apparent bone density; type: in vivo, female Wistar rats
Excerpt: The purpose of this example is to show the potency of bakuchiol in treating osteoporosis, wherein ovary of a female rat is removed to stimulate osteoporosis caused by estrogen deficiency.
The female Wistar rats of 16 weeks old (unless specified in the other experiment description) were obtained from the stock reared by the Animal breeding center, National Scientific Council in Taipei. These rats were grouped by weights matched in order to distribute the physiological response variation from rats evenly into each group. These rats were grouping as follows: • Baseline group fed with no drug added food (n=8) • Sham operation group fed with no drug added food (Sham) (n=10) • Ovariectomy operation group fed with no drug added food (OVX) (n=8) • Ovariectomy operation group fed with Drug A (5 mg/kg) added food (OVX+A) (n=9) • Ovariectomy operation group fed with Drug B (15 mg/kg) added food (OVX+B) (n=9)
Ovariectomy (removal of ovaries) operation: Ovariectomy was induced using a protocol similar to that described by Wronski et al (Wronski et al, Endocrinology, 123 (2), 681-686 ([…]))
During the experiments, the rats were housed in hanging grid cages in groups of two at 21°C with a 12 hours dark cycle. Food (Rat-mouse diet III, adequate in 1 % of calcium content and 1.2 % of phosphate content, Purina, USA) was administered by paired feeding between the experimental and control groups. Pair-feeding was carried out by calculating the average amount of food intake in the Sham group. So give the same amount of food to the OVX , OVX+A (5 mg/kg), OVX+B (15 mg/kg) group animals the following day. These animals were fed with a period of two months except for the baseline group which were killed on the very day of doing ovariectomy or sham operation. Rats of OVX+A and OVX+B groups were fed with the usual food chuck but added certain amount of compound A and B in it respectively. Water was given ad libitum to all rats.
The test drug was weighted according to dose of 5 mg/kg and 15 mg/kg, and added into the ususal food chuck powder and mixed with 10% starch paste. After fully mixed, these chuck powder were made into mass manually and dried by air flow oven. The food with added drug to rats was performed by single blind method.
These labeling and bone histomorphometry assessment were done based on standard procedure in bone research (Lin et al, Calcif. Tissue Int., 67, 373-377 (2000)). […] Seven µm thick unstained sections were prepared for fluorescent microscopy and assessed with program Osteomeasure (3.0 version, Atlanta, USA). […]
The whole tibia and femur were stripped off attached muscles and ligaments after sacrifice. […] The weight of bone measured in the air was marked as W-air. […] The apparent bone density was calculated as [W-air/(W-air minus W-water)] […]

**Q.** What does the source list for `C=C[C@@](C)(/C=C/c1ccc(O)cc1)CCC=C(C)C` [Bakuchiol, bakuchiol]?
**A.** 50% inhibition of cell growth concentrations of test compounds (IC50) (T47D): 5.00 μg/cc; 50% inhibition of cell growth concentrations of test compounds (IC50) (MDA-MB231): 0.62 μg/cc; bone volume of proximal tibia ([1]; OVX+A (5 mg/kg) and OVX+B (15 mg/kg) in food, two months, vs OVX group, p < 0.001, Figure 1): increase; erosion surface (ES/BS,%) of proximal tibia ([1]; OVX+A (5 mg/kg) and OVX+B (15 mg/kg) in food, two months, vs OVX group, p < 0.001, Figure 3): inhibition of bone erosion; bone apparent density of tibia ([1]; OVX+A (5 mg/kg) and OVX+B (15 mg/kg) in food, two months, vs OVX group, p < 0.05, Figure 2): increase; therapeutic effect on osteoporosis ([1]; ovariectomized female rat, low dose (5 mg/kg)): possess a therapeutic effect on osteoporosis by inhibiting the bone resorption
